For this test, the system named is IMR-90 human lung fibroblast viability counter screen. The test can be described thus: cytotoxicity in human IMR-90 lung fibroblasts – cell-based, IC50, cytotoxicity control, dose response (AID 449725).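 Further: 48 hour compound exposure before the viability read.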

Active and inactive are the calls of the source. How the calls were made is not given here. Where only a bound is given, the exact number is not on record here.

We go through 40 compounds from PubChem BioAssay AID449725 (University of Pittsburgh Molecular Library Screening Center, 2010).

On to `COC(=O)c1cc(Cl)ccc1NC(=O)c1ccc(OC)cc1`, for which the IC50 is > 25 µM (inactive).

In the case of `N#Cc1ccc2c(=O)n(-c3ccccc3)sc2c1`, the IC50 was > 25 µM (inactive).

In the case of `COc1cccc(-n2sc3ccccc3c2=O)c1`, the IC50 is 6.34 µM.

In the case of `COc1ccc(C(=O)Nc2ccccc2-c2nn[nH]n2)cc1`, the IC50 was > 25 µM (inactive).

Consider `CN(C)S(=O)(=O)c1cccc(-n2sc3ccccc3c2=O)c1`, for which the IC50 is 12.8 µM.

Regarding `COc1ccc(C(=O)Nc2ccccc2C(=O)O)cc1`, the IC50 was > 25 µM (inactive).

With `O=C1c2cccc(Br)c2SCN1c1ccccc1`, the IC50 was > 25 µM (inactive).

With `OB1OCc2cc(C(F)(F)F)ccc21`, the IC50 was > 25 µM (inactive).

Turning to `CC(=O)Nc1ccc2sn(-c3ccccc3)c(=O)c2c1`, the concentration for half-maximal inhibition (IC50) was 24.5 µM.

For `CC(C)(C)c1ccc(C(=O)Nc2cc(Cl)ccc2C(=O)O)cc1`, the IC50 was > 25 µM (inactive).

For `O=C(Cn1sc2ccccc2c1=O)Nc1cccc(I)c1`, the IC50 is > 25 µM (inactive).

Turning to `O=C(Cn1sc2ccccc2c1=O)Nc1ccccc1`, the half-maximal inhibitory concentration (IC50) was 6.93 µM.

For the compound `O=C(Nc1cc(Cl)ccc1C(=O)O)c1ccc(-c2cccs2)cc1`, the IC50 was > 25 µM (inactive).

For `Cc1cc(C(C#N)c2ccc(Cl)cc2)c(Cl)cc1NC(=O)c1cc(I)cc(I)c1O` (stereo not given), the IC50 is > 25 µM (inactive).

`COc1ccccc1-n1sc2ccccc2c1=O`: the IC50 is 6.29 µM.

Consider `COc1ccc(C(=O)NC(C(=O)O)c2ccccc2)cc1` (stereo not given), for which the IC50 is > 25 µM (inactive).

With `Cc1ccc(-n2sc3ccccc3c2=O)cc1`, the half-inhibitory concentration (IC50) is 18.3 µM.

Consider `O=C(Nc1cc(Cl)ccc1C(=O)O)c1ccc(Cl)cc1`, for which the IC50 is > 25 µM (inactive).

Take `COc1ccc(C(=O)Nc2cc(Cl)ccc2C(=O)O)cc1OC`: the IC50 is > 25 µM (inactive).

As for `O=C(Nc1cc(Cl)ccc1C(=O)O)c1ccc(C2CCC2)cc1`, the IC50 was > 25 µM (inactive).

As for `O=C(Nc1cc(Cl)ccc1C(=O)O)c1ccc(Cc2ccccc2)cc1`, the IC50 is > 25 µM (inactive).

As for `CC(C)(C)c1ccc(C(=O)Nc2cc(Cl)c(F)cc2C(=O)O)cc1`, the IC50 was > 25 µM (inactive).

Consider `O=C(Nc1cc(Cl)ccc1C(=O)O)c1ccc(C2CC2)cc1`, for which the IC50 was > 25 µM (inactive).

For the compound `O=C(Cn1sc2ccccc2c1=O)Nc1ccc(I)cc1`, the IC50 is > 25 µM (inactive).

`O=c1c2ccc(F)cc2sn1Cc1ccccc1`: the IC50 is > 25 µM (inactive).

As to `COc1ccc(CC(=O)Nc2cc(Cl)ccc2C(=O)O)cc1`, the IC50 is > 25 µM (inactive).

For `CN(C)c1ccc(NC(=O)Cn2sc3ccccc3c2=O)cc1`, the IC50 is 18.4 µM.

Consider `COc1ccc(C(=O)Nc2cc(Cl)c(C)cc2C(=O)O)cc1`, for which the IC50 was > 25 µM (inactive).

As for `COc1ccc(Nc2cc(Cl)ccc2C(=O)O)cc1`, the IC50 was > 25 µM (inactive).

With `COc1ccc(C(=O)Nc2cc(I)ccc2C(=O)O)cc1`, the IC50 is > 25 µM (inactive).

Take `O=C(Cn1sc2ccccc2c1=O)Nc1cccc(Br)c1`: the IC50 is > 25 µM (inactive).

With `O=C(Cn1sc2ccccc2c1=O)Nc1ccc(Cl)cc1`, the IC50 was > 25 µM (inactive).

For `Cc1ccc(C(=O)Nc2cc(Cl)ccc2C(=O)O)c(C)c1`, the IC50 was > 25 µM (inactive).

As to `COc1ccccc1NC(=O)Cn1sc2ccccc2c1=O`, the IC50 is 12.3 µM.

`O=c1c2ccccc2sn1-c1ccccc1`: the IC50 was 1.45 µM.

Regarding `COc1ccc(C(=O)Nc2cc(F)cc(F)c2O)cc1`, the IC50 was > 25 µM (inactive).

Take `O=C(Cn1sc2ccccc2c1=O)NC1CCCCC1`: the IC50 is 12.8 µM.

In the case of `CC(=O)Nc1ccc2c(=O)n(-c3ccccc3)sc2c1`, the IC50 is > 25 µM (inactive).

In the case of `CCCCCCCC(=O)Nc1cc(Cl)ccc1C(=O)O`, the IC50 is > 25 µM (inactive).

Take `O=C(Nc1cc(Cl)ccc1C(=O)O)c1ccc2ccccc2c1`: the IC50 was > 25 µM (inactive).
